Results reported in US6835754B2, “Use of aryl nitrone compounds in methods for treating neuropathic pain” (Renovis, Inc., priority 2001, dated 2004).

System: male Swiss Webster mice, phenylquinone-induced writhing
Experiment: Phenylquinone (PQ) writhing assay, % inhibition (Swiss Webster mice)
Type: in vivo
Conditions: Mus musculus, standard, read-out: % Inhibition of Writhing Response

SMILES	inhibition at 1 mg/kg (1 mg/kg) [%]	inhibition at 3 mg/kg (3 mg/kg) [%]
C[C@@H]1C[C@H]2[C@@H]3CCC4=CC(=O)C=C[C@]4(C)[C@@]3(F)[C@@H](O)C[C@]2(C)[C@@]1(O)C(=O)CO [Dexamethasone]	62	
COc1ccc2c(c1)c(CC(=O)O)c(C)n2C(=O)c1ccc(Cl)cc1 [Indomethacin]		93
